Source: US20060222628A1, “Gallium complexes of 3-hydroxy-4-pyrones to treat infection by intracellular prokaryotes and DNA viruses” (priority 1999, published 2006)

What was measured:
HIV-1 = conditions: at subinhibitory concentrations; cited from earlier work
[1] = test system: reverse transcriptase in Rauscher murine leukemia virus; conditions: in vitro; cited from earlier work
[2] = in vivo, po; cited from earlier work
[3] = format: physicochemical
Method: The material forms white to pale beige monoclinic crystals with unit cell parameters of about a=7.899(1)Å, b=8.765(1)Å, c=31.626(2)Å, beta=103.253(7) degrees, V=2131 Å^3, based on powder x-ray diffraction analysis. The solubility of this compound is measured as about 5 millimolar in distilled deionized water at 23° C. Crystallization from other solvents or under other conditions may produce other crystal structures. Under some conditions, water or other solvents may also be incorporated into the structure. […] About 5.5 grams of powdered anhydrous sodium carbonate are added, and stirring continues for additional 12 minutes. […] The remaining crystalline solid is the 3:1 maltol gallium composition. […] The solubility of this composition is measured as about 24 millimolar in distilled deionized water at 23° C.

## O=[N+]([O-])[O-].O=[N+]([O-])[O-].O=[N+]([O-])[O-].[Ga+3] [gallium nitrate]
HIV-1
  Effect on inhibitory effects of nucleoside analogs: potentiated the inhibitory effects of zidovudine, azidothymidine (AZT), dideoxy inosine (ddI), and dideoxy cytosine (ddC)

## [Ga] [Gallium]
[1]
  Inhibition of reverse transcriptase: shown in vitro to inhibit the enzyme reverse transcriptase

## CCc1occc(=O)c1O [ethyl maltol, 3-hydroxy-2-ethyl-4-pyrone]
[2]
  Toxicity when taken orally: very low toxicities

## CCc1occc(=O)c1[O-].CCc1occc(=O)c1[O-].CCc1occc(=O)c1[O-].[Ga+3] [gallium ethyl maltolate, tris(3-hydroxy-2-ethyl-4H-pyran-4-onato)gallium]
[3]
  Solubility: about 5 millimolar

## Cc1occc(=O)c1O [maltol, 3-hydroxy-2-methyl-4-pyrone]
[2]
  Toxicity when taken orally: very low toxicities
